System: white blood cells
Assay: Immune cell selective uptake (immune selectivity ratio) in blood cell preparations
Type: cell-based, mammalian
Parameters: key: Y: Compounds exhibiting high uptake; N: similar structures that do not
Settings: uptake in white cells from blood cell mix; Y/N
Procedure: Freshly drawn heparinised blood or buffy coat preparations are used for the determination of immune cell partition ratios. Buffy coat preparations are preferred. These may be obtained from donor blood by simple centrifugation of whole blood (4795 g for 10 minutes). Following centrifugation, plasma is collected from the surface, after which immune cells are expressed from the donor bags along with the erythrocytes lying immediately below the leukocyte layer. This ensures high yields and a sufficient population of erythrocytes for partition. 5 ml of the resulting cell suspension are dispensed into T25 culture flasks. Substrates are added to a final concentration between 1 and 10 μM and the suspensions incubated at 37° C., in a 5% CO2 atmosphere. For analysis of uptake kinetics, samples are withdrawn at 0, 2, 5, 10, 30, 60, 90, 180, or 240 min after substrate addition. For screening purposes, samples are taken at 0 and 120 minutes.
Cell fractions were prepared using density gradient centrifugation. Mononuclear cells and polymorphonuclear cells are separated from erythrocytes essentially by layering the cell suspension on a viscous medium typically composed of a solution containing Ficoll or similar (commercial suppliers include: Lymphoprep, Axis Shield, 1031966; Lymphoflot HLA, 824010; or PMN Separation Medium Robbins Scientific 1068-00-0). The layered suspension is then centrifuged at 600 g, 20 min, after which the cell fractions and the plasma (incubation medium) fraction are removed by gentle aspiration, washed twice in PBS buffer, followed by estimation of the cell number and pellet volume.
Uptake of fluorescent compounds is monitored using fluorescence microscopy. Excitation and emission wavelengths depend of the fluorescence label in use. A typical label is a methoxy coumarin for which the appropriate wavelengths are 360 and 450 nm respectively. Fluorescent analogs of the compounds under study permit the estimation of appropriate uptake intervals as well as the likely intracellular distribution of the compounds. Fluorescent analogs also allow the estimation of losses in washing or other cell manipulations.
Cell preparations are lysed in water and the debris sedimented at 16100 g, 10 min. The supernatant is recovered and sub-sampled for protein and DNA content. Protein in the supernatant is precipitated by bringing the solution to […] ethanol and centrifuging again at 16100 g, 10 min.
Compound uptake is normalized according to cytoplasmic volume of cells in order to obtain the average concentration in the cells. Cell volume is estimated by correlation of DNA, protein or haem content of lysed cell aliquots to cell number and packed volume prior to lysis.
Cell lysates are analysed using a HP 1100 HPLC System (Agilent Technologies, Waldbronn, Germany) with a Kromasil 3.5μ C18, 50×2.0 mm column and guard cartridge system (both, Phenomenex, Aschaffenburg, Germany) run at 30° C. A gradient elution was performed using water, 0.05% formic acid (A) and acetonitrile 0.05% formic acid (B) (0 min. 5% B, 2.5 min 5% B, 2.8 min 40% B, 10.5 min 85% B, 12.0 min 95% B, 16.5 min 95% B) at a flow rate of 300 μl/min. Re-equilibration of column was at 5% B, at a flow rate of 750 μl/min for 2.4 min. The HPLC-eluate from retention time 0.0 min to 2.5 min was directed directly to waste. Detection was via a UV cell at 214 nm followed by a ⅙ split to an An API-qTOF 1 (Micromass, Manchester, UK) mass spectrometer, (calibrated daily using a mixture of NaI, RbI and CsI). The mass spectrometer is routinely operated in the positive electrospray ionization mode using the following settings: Capillary voltage 4000 V; cone voltage 30 V; RF Lens offset 0.38 V; source block temperature 80° C.; desolvation gas temperature 140° C.; desolvation gas 240 l/h; LM/HM Resolution 0.0; Collision energy 4.0 V; Ion energy 5.0 V.
Masses are monitored according to the known or expected M/Z ratios. […]

Row | SMILES | Concentrative uptake
1 | O=c1ccc2cc(O[C@@H]3O[C@H](CO)C(O)[C@H](O)C3O)c(O)cc2o1 (stereo partly drawn) [Compound 1] | Y
2 | CC[C@H]1OC(=O)[C@H](C)[C@@H](OC2C[C@@](C)(OC)[C@@H](O)[C@H](C)O2)[C@H](C)[C@@H](OC2O[C@H](C)C[C@H](N(C)C)[C@H]2O)[C@](C)(O)C[C@@H](C)/C(=N/OCc2cc(=O)oc3cc(OC)c(OC)cc23)[C@H](C)[C@@H](O)[C@]1(C)O (stereo partly drawn) [Compound 3] | Y
3 | COc1cc(C)c(/C(=C\C(C)=O)CC(N)C(=O)O)cc1OC (stereo not drawn) [Compound 4] | Y
4 | CC[C@H]1OC(=O)[C@H](C)[C@@H](O[C@H]2C[C@@](C)(OC)[C@@H](O)[C@H](C)O2)[C@H](C)[C@@H](OC2O[C@H](C)C[C@H](N(C)C)[C@H]2O)[C@](C)(O)C[C@@H](C)CN(Cc2cc(=O)oc3cc(OC)ccc23)[C@H](C)[C@@H](O)[C@]1(C)O (stereo partly drawn) [Compound 7] | Y
5 | CC(C)(C)OC(=O)NC(CSCC(=O)NCCNc1cccc2c(S(=O)(=O)O)cccc12)C(=O)O (stereo not drawn) [Compound 8] | Y
6 | COc1ccc2c(CSc3ncnc4[nH]cnc34)cc(=O)oc2c1 [Compound 9] | N
7 | COc1cc2oc(=O)cc(CC(NC(=O)CN)C(=O)O)c2cc1OC (stereo not drawn) [Compound 10] | N
8 | CN(C)c1cccc2c(S(=O)(=O)NNC(=N)N)cccc12 [Compound 11] | N
9 | COc1cc(C)c(/C(=C\C(C)=O)CC(NC(=O)CCN)C(=O)O)cc1OC (stereo not drawn) [Compound 12] | N
10 | COc1cc(C)c(/C(=C\C(C)=O)CC(NC(=O)C(N)CCC(=O)O)C(=O)O)cc1OC (stereo not drawn) [Compound 14] | N
11 | O=C(CSc1ncnc2[nH]cnc12)NCCNc1cccc2c(S(=O)(=O)O)cccc12 [Compound 15] | Y
12 | Cc1cc(=O)oc2cc(SCC(=O)NC3CCOC3=O)ccc12 (stereo not drawn) [Compound 22] | Y
13 | Cc1cc(=O)oc2cc(SCC(=O)NCCN3CCOCC3)ccc12 [Compound 23] | Y
14 | Cc1cc(=O)oc2cc(SCC(=O)NN3CCN(CCO)CC3)ccc12 [Compound 24] | N
15 | Cc1cc(=O)oc2cc(SCC(=O)NN3CCOCC3)ccc12 [Compound 25] | N
16 | CN(C)c1cccc2c(S(=O)(=O)NN3CCN(CCO)CC3)cccc12 [Compound 26] | Y
17 | CN(C)c1cccc2c(S(=O)(=O)Nc3cc(O)[nH]n3)cccc12 [Compound 27] | Y
18 | COC(=O)C1CN(S(=O)(=O)c2cccc3c(N(C)C)cccc23)CCC1=O (stereo not drawn) [Compound 29] | N
19 | CN(C)c1cccc2c(S(=O)(=O)N3CCN(c4ccc(O)cc4)CC3)cccc12 [Compound 30] | N
20 | CN(C)c1cccc2c(S(=O)(=O)N3CCN(CCO)CC3)cccc12 [Compound 31] | N
21 | CN(C)c1cccc2c(S(=O)(=O)NC(C)(CO)CO)cccc12 [Compound 32] | N
22 | CN(C)c1cccc2c(S(=O)(=O)N(CCO)CCO)cccc12 [Compound 33] | N
23 | CN(C)c1cccc2c(S(=O)(=O)Nc3c[nH]c(=O)[nH]c3=O)cccc12 [Compound 34] | N
24 | CN(C)c1cccc2c(S(=O)(=O)Nc3ccc(C(=O)O)cc3O)cccc12 [Compound 35] | N
25 | CCN(CC)c1ccc(NS(=O)(=O)c2cccc3c(N(C)C)cccc23)cc1 [Compound 36] | N
26 | CN(C)c1cccc2c(S(=O)(=O)NCCCN3CCCC3=O)cccc12 [Compound 37] | N
27 | COc1ccc(/C(=C\C(C)=O)CSc2nnc(-c3ccc([NH+]([O-])O)o3)s2)c(C)c1 (stereo not drawn) [Compound 38] | N

System: E. coli (DH5α)
Assay: Antibiotic activity testing (TC50, dilution assay)
Type: cell-based
Settings: concentration that inhibits 50% of growth, turbidity OD600
Procedure: The TC50 or MIC procedure for antibiotic sensitivity testing involves an antibiotic dilution assay, which can be performed in microtitre plates. A series of twofold dilutions of each antibiotic are made in the wells, and then all wells are inoculated with a standard amount of the same test organism. After incubation, growth in the presence of the various antibiotics is observed by measuring turbidity.
Bacteria: B. pumilus and E. coli (DH5α)
Bacterial cultures are initiated from the plates for 2 to 3 weeks. After this time period bacteria are streaked out on new plates from the backups stored at −80° C. Due to the lack of resistance of the bacteria, new cultures are not to be initiated from an old plate or any liquid cultures derived from old plates.
Growth medium (GM)(per liter): 10 g Bacto-tryptone, 5 g Bacto-yeast extract, 6 g HEPES (25 mM), 5.4 g NaCl, pH 7.3
Compound stocks 10 or 100 mM in DMSO stored at −20° C.
1. Grow B.pumilus from an LB agar plate in a flask (max. 10% volume) up to about 50 ml in growth medium (GM)
2. Dilute overnight suspension 1:10 in GM
3. Determine OD600 of diluted bacterial suspension
4. Dilute bacterial suspension in GM to an OD600 of 0.03-0.04. (6 ml/plate)
5. Add 200 μl GM to the outer wells (Row A, Row H, Column 1, Column 12)
6. Add 100 μl GM to each well starting from C2, row 3.
7. Controls: Wells B2-B4 growth control. Wells B6-B8 blank. Row C growth inhibition control. • 7.1. To wells B2-B4 add: 96 μl GM, 4 μl DMSO, and 100 μl bacterial suspension adjusted to an OD600 of 0.03-0.04. • 7.2. To wells B6-B8 add: 196 μl GM and 4 μl DMSO • 7.3. Dilute a 10 mM COMPOUND 43 (positive control) stock to 800 μM (120 μl/plate) in GM. Add 100 μl of 800 μM COMPOUND 43 solution to well C2.
8. Samples • 8.1. Dilute the 10 or 100 mM stock solutions to 800 μM (250 μl/plate) in GM. • 8.2. Add 100 μl of 800 μM sample in duplicates to wells D2/E2 resp. F2/G2. • 8.3. 2-fold serial dilution of all samples and Azithromycin • 8.3.1. Rows C-G, Columns 2: Mix and transfer 100 μl from each row to Column 3, and continue until column 11. […]
11. Determine OD600 on plate reader.

Row | SMILES | TC50 in E. coli [µM]
28 | CC[C@H]1OC(=O)[C@H](C)[C@@H](O[C@H]2C[C@@](C)(OC)[C@@H](O)[C@H](C)O2)[C@H](C)[C@@H](O[C@@H]2O[C@H](C)C[C@H](N(C)C)[C@H]2O)[C@](C)(O)C[C@@H](C)CN(C)[C@H](C)[C@@H](O)[C@]1(C)O [COMPOUND 43, 9a-aza-9a-methyl-9-deoxo-9a-homoerythromycin A, reference compound] | 2.3
29 | CC[C@H]1OC(=O)[C@H](C)[C@@H](O[C@H]2C[C@@](C)(OC)[C@@H](O)[C@H](C)O2)[C@H](C)[C@@H](O[C@@H]2O[C@H](C)CC(N(C)C(=O)CN(C)CCO)[C@H]2O)[C@](C)(O)C[C@@H](C)CN(C)[C@H](C)[C@@H](O)[C@]1(C)O (stereo partly drawn) [COMPOUND 45] | >50
30 | CC[C@H]1OC(=O)[C@H](C)C(=O)[C@H](C)[C@@H](O[C@@H]2O[C@H](C)C[C@H](N(C)C)[C@H]2OC(=O)Cc2ccccc2Nc2c(Cl)cccc2Cl)[C@](C)(O)C[C@@H](C)CN(C)[C@H](C)[C@@H](O)[C@]1(C)O [COMPOUND 53] | >50

— patent US7579324B2, “Conjugates of biologically active compounds, methods for their preparation and use, formulation and pharmaceutical applications thereof” (c-a-i-r biosciences GmbH, priority 2002, dated 2009)
